Experimental data reported in PMC9995496, “A screen for MeCP2-TBL1 interaction inhibitors using a luminescence-based assay” (Scientific Reports, 2023).
Structures can show the parent of a compound that is named as a salt. Where two headings read alike, the source gives them in different places.

Test system: PRKACA-PRKAR2A interaction (SmBiT-PRKACA / LgBiT-PRKAR2A), protein kinase A
Set-up: NanoLuc complementation counter-screen in cell extract, PRKACA with PRKAR2A, loss of luminescence, detects NanoLuc interference
Conditions: 0.5 h, 20 µM, inhibitor
[1] = counter-screen for NanoLuc interference
[2] = counter-screen for NanoLuc interference, Inh (PKA)

Inh (PKA) [1] [%] | SMILES | further results
22 | CN1CCc2cc(Nc3ncc(C4CC4)c(NCCCNC(=O)C4CCC4)n3)ccc2C1 [UM0142756:01, MRT68921] | 
20.15 | O=C(c1cccc(Cl)c1F)N1CCN(Cc2cccc(Nc3nccs3)n2)CC1 [UM0142137:01, MK-8745] | 
-0.9273 | O[C@H]1[C@H](O)[C@@H](O)[C@H](O)[C@@H](O)[C@H]1O [UM0142814:01, myo-Inositol] | 
0.1491 | CN(C)C(=O)c1ccc(S(=O)(=O)c2ccc(NC(=O)[C@@](C)(O)C(F)(F)F)c(Cl)c2)cc1 [UM0142195:01, AZD7545] | 
10.88 | Cc1nc(Nc2cnn(C3CCNCC3)c2)nc2c1N(C)C(=O)c1cc3ccccc3cc1N2C [UM0142147:01, HTH-01-015] | 
10.23 | CCc1c(C(=O)NCCc2ccc(N3CCCCC3)cc2)[nH]c2ccc(Cl)cc12 [UM0142252:01, Org 27569] | 
28.39 | CC(C)(O)CC(=O)NCCn1ccc2ncnc(Nc3ccc(Oc4cccc(C(F)(F)F)c4)c(Cl)c3)c21 [UM0142073:01, TAK-285] | 
65.56 | COc1ccc(-c2ccccc2)cc1NS(=O)(=O)c1cc(Cl)cc(Cl)c1O [UM0142166:01, BMS-303141] | 
30.97 | Oc1cc(CNC(=S)/C=C/c2cc(O)c(O)c(Br)c2)cc(O)c1O [UM0142805:01, NT157] | 
90.14 | O=C(Nc1cc(C(F)(F)F)cc(C(F)(F)F)c1)c1cc(Cl)ccc1O [UM0142315:01, IMD 0354] | 
4.692 | CN1CC[C@H](c2c(O)cc(O)c3c(=O)cc(-c4ccccc4Cl)oc23)[C@H](O)C1 [UM0142107:01, Flavopiridol hydrochloride] | 
0.4975 | COc1cc(-c2cn(C)c(=O)c3cnccc23)cc(OC)c1CN(C)C [UM0142765:01, BI-7273] | 
4.726 | Cc1cc(C)nc(NC(=S)N2CCN(Cc3ccc(C(F)(F)F)cc3)CC2)c1 [UM0142833:01, NCT-503] | 
13.04 | Cn1c2ccccc2c2c3c(c4c5ccccc5n(CCC#N)c4c21)C(=O)NC3=O [UM0142134:01, ICP 103] | 
1.08 | OC[C@H]1NC[C@H](O)[C@@H](O)[C@@H]1O [UM0142849:01, 1-Deoxynojirimycin] | 
32.51 | Cc1ccc(C(=O)OCc2ccc([C@@H](CN)C(=O)Nc3ccc4cnccc4c3)cc2)c(C)c1 [UM0142804:01, Netarsudil (AR-13324)] | 
7.723 | COc1ccc(Cn2c3ncnc4c(ncn4Cc4ccc(OC)cc4)c-3nc2=O)cc1 [UM0142806:01, RK-33] | 
4.863 | CC1(C)[C@@H](O[C@H]2O[C@H](C(=O)O)[C@@H](O)[C@H](O)[C@H]2O[C@@H]2O[C@H](C(=O)O)[C@@H](O)[C@H](O)[C@H]2O)CC[C@]2(C)[C@H]3C(=O)C=C4[C@@H]5C[C@@](C)(C(=O)O)CC[C@]5(C)CC[C@@]4(C)[C@]3(C)CC[C@@H]12 [UM0142854:01, Glycyrrhizic acid] | 
41.79 | CN(C)c1cccc(-c2c3c(=O)n(-c4ccccc4Cl)[nH]c3cc(=O)n2C)c1 [UM0142578:01, GKT137831] | 

Further lines, the compound ahead of its results:

SMILES | Inh (PKA) [1] [%] | further results
CS(=O)(=O)c1ccc([C@@H](O)[C@@H](CF)NC(=O)C(Cl)Cl)cc1 [UM0118980:03, Florfenicol] | -0.2471 | 
CC(C)C[C@H](NC(=O)[C@H](CC(C)C)NC(=O)[C@H](CC(C)C)NC(=O)OCc1ccccc1)B(O)O [UM0141934:01, MG-262] | 2.364 | 
COC(=O)[C@@H](N)CCCNC(=N)N[N+](=O)[O-] [UM0141561:05, L-NAME hydrochloride] | -1.626 | 
C[C@]12CC[C@@H]3c4ccc(O)cc4CC[C@H]3[C@@H]1CCC2=O [UM0142038:01, Estrone] | 7.468 | 
Cn1c(=O)c2nc[nH]c2n(C)c1=O [UM0132766:02, Theophylline] | -0.2913 | 
N#C[C@@H]1CCCN1C(=O)CNC12CC3CC(CC(O)(C3)C1)C2 [UM0141675:01, Vildagliptin (LAF-237)] | 0.7818 | 
C[C@H](NC(=O)/C(C#N)=C/c1cccc(Br)n1)c1ccccc1 [UM0141729:01, WP1066] | 28.21 | 
Cc1c(OCC(F)(F)F)ccnc1C[S+]([O-])c1nc2ccccc2[nH]1 (centres unmarked) [UM0118982:03, Lansoprazole] | 1.885 | 
O=c1c(O)c(-c2ccc(O)c(O)c2)oc2cc(O)cc(O)c12 [UM0133552:03, Quercetin] |  | Inh (PKA) [2]: 26.1%
CC(C)(O)/C=C/C(=O)[C@](C)(O)[C@H]1[C@H](O)C[C@@]2(C)[C@@H]3CC=C4[C@@H](C=C(O)C(=O)C4(C)C)[C@]3(C)C(=O)C[C@]12C [UM0141852:01, Cucurbitacin I] |  | Inh (PKA): -0.1004%
Oc1cccc(-c2nc(N3CCOCC3)c3oc4ncccc4c3n2)c1 [UM0127905:03, PI-103] |  | Inh (PKA) [2]: 4.016%
Cc1cccc(C)c1OCC(=O)N[C@@H](Cc1ccccc1)[C@@H](O)C[C@H](Cc1ccccc1)NC(=O)[C@H](C(C)C)N1CCCNC1=O [UM0141948:01, Lopinavir] | 17.52 | 
CCOC(=O)[C@@H](N)CCC(=O)N[C@@H](CSCc1ccccc1)C(=O)N[C@@H](C(=O)OCC)c1ccccc1 [UM0141959:01, Ezatiostat] |  | Inh (PKA) [2]: 2.198%
Oc1ccc(/C=C/c2cc(O)cc(O)c2)cc1 [UM0128556:03, Resveratrol] | 25.41 | 
CC#CCn1c(N2CCC[C@@H](N)C2)nc2c1c(=O)n(Cc1nc(C)c3ccccc3n1)c(=O)n2C [UM0141673:01, Linagliptin (BI-1356)] | 1.695 | 
CCCCCCCCCCC[C@@H](C[C@@H]1OC(=O)[C@H]1CCCCCC)OC(=O)[C@H](CC(C)C)NC=O [UM0119382:03, Orlistat] | -0.3481 | 
O=C1NC(=O)[C@@H](c2cn3c4c(cccc24)CCC3)[C@@H]1c1c[nH]c2ccccc12 [UM0141990:01, Tivantinib (ARQ 197)] | 34.28 | 
CC(C)C[C@H](NC(=O)CNC(=O)c1cc(Cl)ccc1Cl)B(O)O [UM0141663:01, MLN2238] | 0.9496 | 
COC[C@@H]1CCCN1S(=O)(=O)c1ccc2c(c1)C(=O)C(=O)N2 [UM0141431:01, Caspase-3/7 Inhibitor I] | 2.243 | 

SMILES | Inh (PKA) [1] [%] | further results
COC(=O)C[C@H](NC(=O)[C@@H](NC(=O)c1ccc2ccccc2n1)C(C)C)C(=O)COc1c(F)cccc1F [UM0141924:01, Q-VD(OMe)-OPh] | 13.3 | 
Cn1cnc2c(F)c(Nc3ccc(Br)cc3F)c(C(=O)NOCCO)cc21 [UM0141435:01, MEK162 (ARRY-162, ARRY-438162)] | 13.83 | 
O=C(NCCN1CCOCC1)c1ccc(Cl)cc1 [UM0134186:02, Moclobemide (Ro 111163)] | 0.401 | 
Nc1nc(Nc2ccc3c(c2)CCC(N2CCCC2)CC3)nn1-c1cc2c(nn1)-c1ccccc1CCC2 (centres unmarked) [UM0141994:01, R428] | 28.03 | 
CCOc1cc([C@@H](CS(C)(=O)=O)N2C(=O)c3cccc(NC(C)=O)c3C2=O)ccc1OC [UM0141777:01, Apremilast (CC-10004)] | 1.324 | 
COc1ccc(Cn2ccc3ccc(C(=O)NO)cc32)cc1 [UM0141698:01, PCI-34051] | 4.873 | 
O=C(O)CNC(=O)c1c(O)c2ccccc2n(Cc2ccccc2)c1=O [UM0141753:01, IOX2(Glycine)] | 18.92 | 
CS(=O)(=O)c1ccc(C(=O)Nc2ccc(Cl)c(-c3ccccn3)c2)c(Cl)c1 [UM0135488:02, GDC-0449 (Vismodegib)] | 8.773 | 
COc1ccc2c(c1)c(CC(=O)O)c(C)n2C(=O)c1ccc(Cl)cc1 [UM0118515:03, Indomethacin] | 5.004 | 
CCN(C(=O)c1c(O)c2c(Cl)cccc2n(C)c1=O)c1ccccc1 [UM0142053:01, Laquinimod (ABR-215062)] | 1.122 | 
CCOc1cc2ncc(C#N)c(Nc3ccc(OCc4ccccn4)c(Cl)c3)c2cc1NC(=O)/C=C/CN(C)C [UM0141987:01, Neratinib (HKI-272)] | 9.342 | 
NC1=N[C@@]2(c3cc(NC(=O)c4ccc(F)cn4)ccc3F)COC[C@H]2CS1 [UM0142055:01, LY2886721] | 5.898 | 
COc1cc(Nc2ncc(F)c(Nc3ccc4c(n3)NC(=O)C(C)(C)O4)n2)cc(OC)c1OC [UM0142079:01, R406] |  | Inh (PKA) [2]: 54.73%
Cn1cnc2c(F)c(Nc3ccc(Br)cc3Cl)c(C(=O)NOCCO)cc21 [UM0130968:04, AZD6244 (Selumetinib)] | 16.5 | 
Cc1cccc(-c2[nH]ncc2-c2ccc3ncccc3n2)n1 [UM0141613:01, RepSox] | 2.359 | 
CC(C)c1nc(CN(C)C(=O)N[C@H](C(=O)N[C@@H](Cc2ccccc2)C[C@H](O)[C@H](Cc2ccccc2)NC(=O)OCc2cncs2)C(C)C)cs1 [UM0141947:01, Ritonavir] | 6.592 | 
CC(C)(C)c1nc(-c2cccc(NS(=O)(=O)c3c(F)cccc3F)c2F)c(-c2ccnc(N)n2)s1 [UM0141540:01, Dabrafenib Mesylate (GSK-2118436)] |  | Inh (PKA) [2]: 39.79%
O=C(O)c1cc(/N=N/c2ccc(S(=O)(=O)Nc3ccccn3)cc2)ccc1O [UM0141908:01, Sulfasalazine] | 56.84 | 
